By IC50 is commonly meant the concentration needed to halve the response being measured.

The source made the active and inactive calls. No stated cut-off is given here; in the data, actives have a measured IC50 and inactives only a lower limit.

The experiment has as its target T1, Caspase-3 (Homo sapiens, UniProt P42574).
T1 sequence (P42574 whole entry): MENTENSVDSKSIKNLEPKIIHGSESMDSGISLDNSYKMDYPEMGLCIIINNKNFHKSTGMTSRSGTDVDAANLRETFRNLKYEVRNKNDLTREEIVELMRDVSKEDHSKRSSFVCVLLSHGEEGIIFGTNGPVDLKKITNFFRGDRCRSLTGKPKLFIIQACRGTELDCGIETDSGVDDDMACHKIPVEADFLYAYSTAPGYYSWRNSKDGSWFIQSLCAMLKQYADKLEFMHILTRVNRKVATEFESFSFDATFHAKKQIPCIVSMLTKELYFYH
It counts as functional.
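Further: Dose-response selectivity test against caspase-3 for candidate inhibitors of sentrin-specific proteases (SENPs).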

Regarding `Oc1[nH]c2ccccc2c1N=Nc1ccc(F)cc1`, the IC50 is 7.58 µM (active).

The record behind these values is ChEMBL document CHEMBL1201862, “PubChem BioAssay data set” (2004).
